How the values were obtained:
Assay in all cases: Example B1 herbicidal action, post-emergence, 96-cell seed trays, climatic chamber
Assay type in all cases: in vivo
[1] = tested on: Nasturtium officinale (NAAOF); design: scale not given here; conditions: Application post-emergence, 1000 mg/l spray equivalent to 1000 g/ha, evaluated after 9 days (100=total damage to plant, 0=no damage to plant)
Procedure: (§1) Seeds of a variety of test species were sown in sterilised standard soil in seed trays each having 96 cells. After cultivation for 8 to 9 days cultivation (post-emergence) under controlled conditions in a climatic chamber (cultivation at 23/17° C., day/night; 13 hours light; 50-60% humidity), the plants were treated with an aqueous spray solution of 1000 mg/l of the active ingredient dissolved in 10% DMSO (dimethyl sulfoxide, CAS RN 67-68-5) as a solvent, equivalent to 1000 g/ha. The plants were grown in the climatic chamber after application at (24/19° C., day/night; 13 hours light; 50-60% humidity) and watered twice daily. After 9 days until the test was evaluated (100=total damage to plant, 0=no damage to plant)

[2] = tested on: Amaranthus retroflexus (AMARE); conditions: Application post-emergence, 1000 mg/l spray equivalent to 1000 g/ha, evaluated after 9 days
Procedure: as §1

Solanum nigrum (SOLNI) = conditions: Application post-emergence, 1000 mg/l spray equivalent to 1000 g/ha, evaluated after 9 days (100=total damage to plant, 0=no damage to plant)
Procedure: as §1

Stellaria media (STEME) = conditions: Application post-emergence, 1000 mg/l spray equivalent to 1000 g/ha, evaluated after 9 days (100=total damage to plant, 0=no damage to plant)
Procedure: as §1

| Compound | damage to plant, Nasturtium officinale (NAAOF) [1] | damage to plant, Amaranthus retroflexus (AMARE) [2] | damage to plant, Solanum nigrum (SOLNI) (Solanum nigrum (SOLNI)) | damage to plant, Stellaria media (STEME) (Stellaria media (STEME)) |
| --- | --- | --- | --- | --- |
| CC(=O)Oc1c(-c2ccc(Cl)cc2Cl)c(=O)[nH]c2nccnc12 [Compound B1] | 0 | 8 | 0 | 3 |
| C=CCn1c(=O)c(-c2c(Cl)cccc2Cl)c(OC(=O)CC)c2nccnc21 [Compound C30] | 8 | 8 | 4 | 8 |
| O=c1[nH]c2ncc(Cl)nc2c(O)c1-c1c(Cl)cccc1Cl [Compound A27] | 0 | 0 | 0 | 2 |
| CCn1c(=O)c(-c2c(Cl)cccc2Cl)c(OC(=O)C(C)(C)C)c2nccnc21 [Compound C41] | 2 | 2 | 0 | 2 |
| CCc1cc(C)cc(CC)c1-c1c(OC(=O)C(C)C)c2nccnc2n(C)c1=O [Compound C65] | 7 | 4 | 3 | 6 |
| CCn1c(=O)c(-c2ccc(Cl)c(Cl)c2)c(OC(C)=O)c2nccnc21 [Compound C72] | 8 | 0 | 0 | 2 |
| COc1cccc(C(=O)Oc2c(-c3c(F)ccc(F)c3Cl)c(=O)n(C)c3nccnc23)c1 [Compound C85] | 3 | 5 | 4 | 4 |
| CC(C)C(=O)Oc1c(-c2c(Cl)cccc2C(F)(F)F)c(=O)n(C)c2nccnc12 [Compound C76] | 6 | 7 | 4 | 6 |
| CC(=O)Oc1c(-c2c(Cl)cccc2Cl)c(=O)[nH]c2nccnc12 [Compound B10] | 6 | 8 | 0 | 0 |
| CC(C)C(=O)Oc1c(-c2ccc(Cl)cc2Cl)c(=O)n(C)c2nccnc12 [Compound C63] | 9 | 5 | 5 | 8 |
| Cn1c(=O)c(-c2cc(C(F)(F)F)ccc2Cl)c(OC(=O)C(C)(C)C)c2nccnc21 [Compound C121] | 6 | 5 | 7 | 7 |
| Cn1c(=O)c(-c2ccccc2OC(F)(F)F)c(OC(=O)C(C)(C)C)c2nccnc21 [Compound C29] | 2 | 0 | 4 | 0 |
| O=c1[nH]c2nccnc2c(O)c1-c1ccccc1Cl [Compound A2] | 2 | 6 | 0 | 2 |
| CC(C)C(=O)Oc1c(-c2ccc(F)cc2Cl)c(=O)n(C)c2nccnc12 [Compound C5] | 7 | 7 | 2 | 8 |
| CC(=O)Oc1c(-c2ccccc2OC(F)(F)F)c(=O)n(Cc2ccccc2)c2nccnc12 [Compound C24] | 4 | 0 | 3 | 3 |
| CC(C)C(=O)Oc1c(-c2c(F)ccc(F)c2Cl)c(=O)n(C)c2ncc[n+]([O-])c12 [Compound C71, isobutyric acid 7-(2-chloro-3,6-difluorophenyl)-5-methyl-6-oxo-1-oxy-5,6-dihydropyrido[2,3-]pyrazin-8-yl ester] | 7 | 0 | 2 | 8 |
| Cn1c(=O)c(-c2c(Cl)cccc2Cl)c(OC(=O)C(C)(C)C)c2nccnc21 [Compound C37] | 7 | 5 | 6 | 5 |
| Cc1ccc(Cl)c(-c2c(OC(=O)C(C)C)c3nccnc3n(C)c2=O)c1F [Compound C114] | 5 | 2 | 2 | 6 |

| Compound | damage to plant, Nasturtium officinale (NAAOF) [1] | damage to plant, Amaranthus retroflexus (AMARE) [2] | damage to plant, Solanum nigrum (SOLNI) (Solanum nigrum (SOLNI)) | damage to plant, Stellaria media (STEME) (Stellaria media (STEME)) |
| --- | --- | --- | --- | --- |
| CCC(C)C(=O)Oc1c(-c2c(F)ccc(F)c2Cl)c(=O)n(C)c2nccnc12 (centres unmarked) [Compound C87] | 4 | 6 | 6 | 2 |
| O=c1[nH]c2nccnc2c(O)c1-c1c(Cl)cccc1Cl [Compound A5] | 6 | 3 | 3 | 3 |
| CC(C)C(=O)Oc1c(-c2ccccc2C(F)(F)F)c(=O)n(C)c2nccnc12 [Compound C110] | 6 | 7 | 6 | 7 |
| CCn1c(=O)c(-c2ccc(Cl)cc2Cl)c(OC(=O)C(C)C)c2nccnc21 [Compound C64] | 10 | 6 | 8 | 10 |
| O=c1[nH]c2nccnc2c(O)c1-c1c(Cl)cccc1C(F)(F)F [Compound A31] | 3 | 5 | 0 | 3 |
| O=c1[nH]c2nccnc2c(O)c1-c1c(Cl)cc(C(F)(F)F)cc1Cl [Compound A14] | 7 | 6 | 0 | 7 |
| COc1ccc(-c2c(O)c3nccnc3[nH]c2=O)c(OC)c1 [Compound A20] | 2 | – | – | 0 |
| CCC(=O)Oc1c(-c2c(Cl)cccc2Cl)c(=O)n(CCOC)c2nccnc12 [Compound C34] | 5 | 2 | 0 | 6 |
| CCn1c(=O)c(-c2cccc(Cl)c2)c(OC(C)=O)c2nccnc21 [Compound C66] | 7 | 0 | 0 | 7 |
| CC(C)Cn1c(=O)c(-c2c(F)ccc(F)c2Cl)c(OC(=O)C(C)(C)C)c2nccnc21 [Compound C48] | 0 | 0 | 1 | 1 |
| CCn1c(=O)c(-c2c(F)ccc(F)c2Cl)c(O)c2nccnc21 [Compound D2] | 8 | 6 | 8 | 8 |
| CCCCC(CC)C(=O)Oc1c(-c2c(F)ccc(F)c2Cl)c(=O)n(C)c2nccnc12 (centres unmarked) [Compound C92] | 2 | 5 | 7 | 6 |
| O=c1[nH]c2nccnc2c(O)c1-c1cc(Cl)cc(Cl)c1Cl [Compound A28] | 3 | 2 | 0 | 2 |
| CCn1c(=O)c(-c2ccc(Cl)cc2Cl)c(OC(=O)C(C)(C)C)c2nccnc21 [Compound C62] | 8 | 7 | 1 | 8 |
| CCn1c(=O)c(-c2cc(C(F)(F)F)ccc2Cl)c(OC(=O)C(C)C)c2nccnc21 [Compound C119] | 7 | 7 | 6 | 8 |
| Cn1c(=O)c(-c2c(F)ccc(F)c2Cl)c(OC(=O)c2ccc([N+](=O)[O-])cc2)c2nccnc21 [Compound C51] | 7 | 7 | 0 | 7 |
| CCn1c(=O)c(-c2ccccc2OC(F)(F)F)c(O)c2nccnc21 [Compound D5] | 7 | 3 | – | 6 |
